Results published in US12421272B2, “Artificial nucleic acid, production method therefor, and use thereof” (SYSMEX CORPORATION, priority 2019, dated 2025).
Values joined by “and” are separate entries in the source; they are usually repeats but may differ in a detail not shown here. Identical values can stand only once.

What was measured:
Assay type in all cases: binding
[1] = tested on: Target double-stranded DNA (DNA-1), 203-bp PCR product from pBR322 plasmid; test: Strand invasion in the absence of SSB, gel shift assay; conditions: no SSB
Text: (§1) Target double-stranded DNA molecules are as follows. • (DNA-1) A 203-bp PCR product produced using pBR322 plasmid (commercially available product) as a template (SEQ ID NOs: 23 and 24). • (DNA-2) A 203-bp PCR product produced using artificial gene T1825G (commercially available product) based on pBR322 plasmid as a template. • (DNA-3) A 203-bp PCR product produced using artificial gene T1825C (commercially available product) based on pBR322 plasmid as a template. • (DNA-4) A 203-bp PCR product produced using artificial gene T1825A (commercially available product) based on pBR322 plasmid as a template.
The reaction was carried out using a thermal cycler (StepOnePlus, Applied Biosystems), in which each of the sample solutions was cooled from 94° C. to 54° C. at a cooling rate of 2° C./30 seconds or was kept at 37° C. for a certain period (24 hours, 48 hours).
The condition that the sample solution was cooled from 94° C. to 54° C. at a cooling rate of 2° C./30 seconds was a condition where a target double-stranded DNA (in this case, a 203-bp PCR product) can be converted to a single strand by the action of a heat energy and strand invasion can be caused by cooling slowly. Therefore, the condition simulated the use in a gene analysis technique.
The condition that temperature is kept at 37° C. for a certain period simulated an in vivo reaction, and therefore simulated the use in a nucleic acid medicine or genome edition.
The same procedures as in the step (3) above were carried out. In this experiment, only the staining using GelGreen (fluorescence staining) was carried out.
The reaction was carried out using a thermal cycler (StepOnePlus, Applied Biosystems), in which each of the sample solutions was cooled from 94° C. to 54° C. at a cooling rate of 2° C./30 seconds.

[2] = tested on: Target double-stranded DNA (DNA-1), 203-bp PCR product from pBR322 plasmid; test: Strand invasion in the presence of SSB, gel shift assay; conditions: SSB 6 μM, oligonucleotide 200 nM, DNA-1 30 nM, 37° C. for 120, 60 or 30 minutes
Text: as §1
Each of the sample solutions was reacted at 37° C. for 120 minutes, 60 minutes, or 30 minutes using a thermal cycler (StepOnePlus, Applied Biosystems).
After the completion of the reaction, two gels respectively having the sample solutions applied thereon prepared, and PAGE (Poly-Acrylamide Gel Electrophoresis) was carried out on the gels simultaneously under the following conditions. […]
After the completion of the electrophoresis, one of the gel was subjected to fluorescence staining (GelGreen Nucleic Acid Stain 10,000×, Biotium) for staining a nucleic acid, and the other gel was subjected to silver staining (EzStain Silver, ATTO corporation) for staining a nucleic acid and a protein simultaneously. […]

[3] = tested on: single-stranded DNA (5′-d(AGCAAAAAACGC)-3′; SEQ ID NO: 6); test: Melting temperature (Tm), capability of forming double strand with single-stranded DNA; conditions: sense strand 5′-d(AGCAAAAAACGC)-3′; 100 nM NaCl, 10 mM sodium phosphate buffer (pH 7.2), 4 μM of each strand; 0.5° C./min.
[4] = tested on: single-stranded RNA (5′-r(AGCAAAAAACGC)-3′; SEQ ID NO: 7); conditions: pH 7.2

Substance | occurrence of strand invasion ([1]; oligonucleotide 100 nM (3.3 equivalents), DNA-1 30 nM, cooled from 94° C. to 54° C. or left at 37° C.) | occurrence of strand invasion (comparison of strand invasion functionality) ([1]; oligonucleotide 100 nM, DNA-1 30 nM, cooled from 94° C. to 54° C. or kept at 37° C. (24 hours, 48 hours)) | occurrence of strand invasion into the sequence for wild-type ([1]; oligonucleotide 200 nM, DNA-1 15 nM, cooled from 94° C. to 54° C. or kept at 37° C. (24 hours, 48 hours)) | occurrence of strand invasion [2] | Tm [3] [°C] | Tm [4]
PNA20: PNA 20-mer H-(Lys)ggcatgttcatcatcagtaa(Lys)-NH2 (GGCATGTTCATCATCAGTAA; all peptide nucleic acid (PNA); Lys residue at N- and C-terminus, C-terminal amide) | the occurrence of strand invasion was not confirmed | the occurrence of strand invasion was not observed | did not cause strand invasion | observed | – | –
5′-d(GCGTTTTTTGCT)-3′: unmodified DNA antisense strand, SEQ ID NO: 5 (unmodified DNA) | – | – | – | – | 52 | 48 °C and 52 °C
